Data published in PMC11024357 (Frontiers in Pharmacology, 2024).
Like-named read-outs stand apart in the source and are kept apart here. Values belong to the compound of their own block, whether it stands above or below them.

Tests used:
[1] = parameters: method as in Susal and Dohler, 2019; settings: ref Susal and Dohler, 2019, cited from earlier work
[2] = 2012, cited from earlier work
[3] = parameters: method as in Takahashi et al., 2007; settings: ref Takahashi et al., 2007, cited from earlier work
[4] = Tacrolimus blood pharmacokinetics without and with omeprazole 20 mg or famotidine 20 mg in kidney transplant patients (CMIA, non-compartmental analysis); assay type: in vivo, human; settings: for the mean C0/D ratio: pre-dose concentration / daily dose; for C0h, Q1: first quartile; for C0h, Q2: median; for C0h, Q3: third quartile; for concentration at 2 h / concentration at 6 h / AUC(0-t) / Cmax / AUC: human, whole blood, oral; for concentration at 2 h: read-out: C2; for concentration at 6 h: read-out: C6; for AUC(0-t): read-out: AUC0-6; for AUC: read-out: AUC2-6; for Effect of single 20 mg co-administration on tacrolimus pharmacokinetic parameters: kidney transplant patients, day 2 vs day 1
From the text: The study, randomized, non-blinded, comprised 24 stabilized adult patients between 1–12 months after kidney transplantation (NCT05061303), who received a kidney from a deceased donor. Inclusion criteria were time since kidney transplantation (1–12 months after kidney transplantation) and standard immunosuppressive regimen (tacrolimus, mycophenolate mofetil, prednisone/methylprednisolone/deflazacort). In this group, 2 individuals withdrew their informed consent and were excluded from study. Each randomized patient was admitted to the Department of Nephrology, Transplantology and Internal Diseases of Poznan University of Medical Sciences for 2 days (48 h). The study used the simple randomization method. One of the authors of the study (no the principal researcher) generated a randomized sequence for assigning patients to groups. The random component (computer-generated random numbers) was used in the sequence generation process. Figure 1 presented CONSORT flow chart. No participant changed the group during the study. Standard laboratory tests (creatinine, estimated glomerular filtration rate (eGFR), complete blood count, proteinuria, erythrocyturia) were performed during the first 2 days of participation in the study. In addition, the glomerular filtration rate (GFR) was calculated for each patient using The Chronic Kidney Disease Epidemiology Collaboration (CKD-EPI) creatinine equation to estimate GFR. […] Patients received tacrolimus once daily in the form of tacrolimus monohydrate prolonged-release tablets (Envarsus®, Chiesi Farmaceutici), registration numbers: EU/1/14/935/00, EU/1/14/935/004, EU/1/14/935/006, EU/1/14/935/007 or in the form of tacrolimus monohydrate prolonged-release hard capsules (Advagraf®, Astellas Pharma Europe), registration numbers: EU/1/07/387/001, EU/1/07/387/003, EU/1/07/387/011, EU/1/07/387/007. […] All patients before the start of the study achieved tacrolimus steady state. […] The results were used to obtain the values of pharmacokinetic parameters and statistical evaluation. No study-related adverse events were reported by patients, physicians, medical staff, or others during the study.
In order to establish the tacrolimus metabolism rate in the patients, the blood concentration normalized by the dose (C/D ratio) was calculated. The C0/D ratio can be calculated by dividing the tacrolimus pre-dose concentration (C0) by the corresponding daily tacrolimus dose (D). […] The fast metabolizers group included patients with a C/D ratio of <1.05 ng/mL*1/mg, whereas if the aforementioned ratio was ≥1.55 ng/mL*1/mg, the participants were described as slow metabolizers ([Tholking et al., 2014]).
Tacrolimus concentrations were determined using CMIA, by means of Alinity i analyser ([Mei et al., 2018]). Samples were stored frozen (−10°C or below) for no longer than 6 months. Each sample was thoroughly mixed prior to determining concentration, and 200 μL of each sample was pipetted into a centrifuge tube. Subsequently, the dispenser was filled with the appropriate volume of […] Tacrolimus Whole Blood Precipitation Reagent, followed by the removal of air bubbles from the dispenser. 200 μL of […] Tacrolimus Whole Blood Precipitation Reagent was added to the contents of the first centrifuge tube. Each individual tube was capped, mixed immediately after adding the reagent and centrifuged for 5–10 s. The tubes were then centrifuged again for 4 min. Each tube was uncapped and the supernatant was decanted (poured off) into a Graft Pre-Treatment Tube. They were then vortexed for 5–10 s and assayed for the concentrations of tacrolimus.
Calibration was performed in duplicate samples by testing Calibrators A, B, C, D, E and F. Control samples were prepared by mixing 150 μL of the patient sample and 150 μL of […] Tacrolimus Calibrator A. One sample for each control level was tested once every 24 h as a quality control test. […]

[5] = no reference given; cited from earlier work
[6] = parameters: method as in Summary of Product Characteristics; settings: ref Summary of Product Characteristics; cited from earlier work
[7] = 0.0376 mg/kg, group II, no FA (day 1)
[8] = 0.0611 mg/kg, group I, no OM (day 1)
[9] = 20 mg, group II, FA 20 mg (day 2)
[10] = with omeprazole 20 mg (day 2) vs no omeprazole (day 1)

the mean C0/D ratio ([4]; Group I (omeprazole group), mean ± SD): 2.02 ± 1.14 ng/mL*1/mg
the mean C0/D ratio ([4]; Group II (famotidine group), mean ± SD): 2.49 ± 0.76 ng/mL*1/mg
C2 ([4]; group I, 2 h, OM 20 mg (day 2)): 11.90 ± 5.03 ng/mL
AUC 0–6 normalized by the dose ([4]; group I, OM 20 mg (day 2)): 1308.01 ± 595.19 (ng × h/mL)/(mg/kg)
AUC 2–6 normalized by the dose ([4]; group I, OM 20 mg (day 2)): 939.13 ± 453.89 (ng × h/mL)/(mg/kg)
AUC0-6 ([4]; group I, no OM (day 1)): 54.23 ± 10.48 ng·h/mL
AUC 2–6 normalized by the dose ([4]; group I, no OM (day 1)): 832.98 ± 415.81 (ng × h/mL)/(mg/kg)
AUC 0–6 normalized by the dose ([4]; group II, FA 20 mg (day 2)): 1784.71 ± 447.89 (ng × h/mL)/(mg/kg)
AUC2-6 ([4]; group II, FA 20 mg (day 2)): 44.05 ± 11.28 ng·h/mL
AUC 2–6 normalized by the dose ([4]; group II, FA 20 mg (day 2)): 1268.57 ± 329.31 (ng × h/mL)/(mg/kg)
C0h, Q1 ([4]; group II, FA 20 mg (day 2)): Q1: 5.60 ng/mL
C0h, Q2 ([4]; group II, FA 20 mg (day 2)): Q2: 7.30 ng/mL
C0h, Q3 ([4]; group II, FA 20 mg (day 2)): Q3: 7.95 ng/mL
AUC 0–6 normalized by the dose ([4]; group II, no FA (day 1)): 1677.84 ± 358.32 (ng × h/mL)/(mg/kg)
AUC 2–6 normalized by the dose ([4]; group II, no FA (day 1)): 1196.79 ± 279.50 (ng × h/mL)/(mg/kg)
C0h, Q1 ([4]; group II, no FA (day 1)): Q1: 5.25 ng/mL
C0h, Q2 ([4]; group II, no FA (day 1)): Q2: 6.50 ng/mL
C0h, Q3 ([4]; group II, no FA (day 1)): Q3: 8.80 ng/mL
concentration at 2 h ([4]; 0.0376 mg/kg, group II, 2 h, no FA (day 1)): 10.3 ± 4.64 ng/mL
concentration at 6 h [4, 7]: 10.8 ± 3.16 ng/mL
AUC(0-t) [4, 7]: 59.1 ± 16.6 ng·h/mL
concentration at 2 h ([4]; 0.0611 mg/kg, group I, 2 h, no OM (day 1)): 9.4 ± 2.5 ng/mL
concentration at 6 h [4, 8]: 9.94 ± 3.03 ng/mL
Cmax ([4]; 0.0611 mg/kg, group I, no OM (day 1), mean ± SD): 11.2 ± 2.34 ng/mL
AUC [4, 8]: 38.7 ± 7.7 ng·h/mL
Cmax ([4]; 20 mg, group I, OM 20 mg (day 2), mean ± SD): 13.1 ± 4.3 ng/mL
AUC(0-t) ([4]; 20 mg, group I, OM 20 mg (day 2)): 63.1 ± 19.5 ng·h/mL
Cmax [4, 9]: 13.1 ± 4.17 ng/mL
AUC(0-t) [4, 9]: 62.1 ± 15.9 ng·h/mL
concentration at 2 h ([4]; group I, 2 h, OM 20 mg (day 2)): 11.9 ± 1.59 ng/mL
concentration at 2 h ([4]; group I, 2 h, no OM (day 1)): 9.4 ± 0.79 ng/mL
concentration at 6 h ([4]; group I, OM 20 mg (day 2)): 10.3 ± 1.99 ng/mL
concentration at 2 h ([4]; group II, 2 h, FA 20 mg (day 2)): 11 ± 4.27 ng/mL
concentration at 6 h ([4]; group II, FA 20 mg (day 2)): 11 ± 3.53 ng/mL
AUC ([4]; group I, OM 20 mg (day 2)): 44.3 ± 11.5 ng·h/mL
Cmax ([4]; group II, no FA (day 1)): 12.7 ± 4.39 ng/mL
AUC ([4]; group II, no FA (day 1)): 42 ± 11.5 ng·h/mL
Increase of tacrolimus AUC0-6 [4, 10]: 16.30%
Increase of tacrolimus AUC0-6 normalized by the dose [4, 10]: 12.88%
Increase of tacrolimus AUC2-6 [4, 10]: 14.58%
Increase of tacrolimus AUC2-6 normalized by the dose [4, 10]: 12.74%
Increase of tacrolimus C2h [4, 10]: 26.60%
SMILES: C=CC[C@@H]1/C=C(\C)C[C@H](C)C[C@H](OC)[C@H]2O[C@@](O)(C(=O)C(=O)N3CCCC[C@H]3C(=O)O[C@H](/C(C)=C/[C@@H]3CC[C@@H](O)[C@H](OC)C3)[C@H](C)[C@@H](O)CC1=O)[C@H](C)C[C@@H]2OC [tacrolimus]
6-year survival of the kidney graft ([1]; tacrolimus C0 4.0–4.9 ng/mL): 86.5%
6-year survival of the kidney graft ([1]; tacrolimus C0 5.0–6.9 ng/mL in the first 3 years after transplantation): over 88%
6-year survival of the kidney graft ([1]; tacrolimus C0 7.0–8.9 ng/mL in the first 3 years after transplantation): over 88%
6-year survival of the kidney graft ([1]; tacrolimus C0 <4 ng/mL): 82.6%
6-year survival of the kidney graft ([1]; tacrolimus C0 ≥9 ng/mL): 87.5%
increase in tacrolimus concentrations after omeprazole administration ([2]; kidney transplant patient, ref Zhao WFM. et al.): more than four-fold increase
tacrolimus blood trough level (C0) ([2]; postoperative day 3, 9 mg twice daily, before omeprazole, ref Zhao W. et al.): 19.6 ng/mL
tacrolimus blood trough level (C0) ([2]; postoperative day 4, 9 mg twice daily, before omeprazole, ref Zhao W. et al.): 29.2 ng/mL
serum creatinine (acute nephrotoxicity) ([2]; postoperative day 6, at tacrolimus C0 92 ng/mL with omeprazole, ref Zhao W. et al.): 160 µM
tacrolimus blood trough level (C0) ([2]; postoperative day 6, dose reduced to 7 mg, omeprazole given on day 5, ref Zhao W. et al.): 92 ng/mL
blood concentrations of tacrolimus ([3]; after switching omeprazole to oral rabeprazole 10 mg/day (day 21)): approximately 10 ng/mL
tacrolimus trough levels ([3]; on omeprazole, despite dose reductions from 17 to 9 mg/day): above 15 ng/mL
trough concentration of tacrolimus ([3]; post-transplant day 17, daily oral dose 17 mg, on ranitidine): 12.5 ng/mL
tacrolimus trough levels ([3]; post-transplant day 19, after start of intravenous omeprazole on day 18): 30.0 ng/mL
bound to plasma proteins [5]: approximately 99%

SMILES: COc1ccc2[nH]c([S+]([O-])Cc3ncc(C)c(OC)c3C)nc2c1 (stereo not shown) [omeprazole]
elimination half-life in the body [6]: shorter than an hour
Effect of single 20 mg co-administration on tacrolimus pharmacokinetic parameters [4]: significantly increases blood exposure of tacrolimus
bound to plasma proteins [5]: approximately 95%

Effect of single 20 mg co-administration on tacrolimus pharmacokinetic parameters [4]: no significant changes
SMILES: NC(N)=Nc1nc(CSCCC(N)=NS(N)(=O)=O)cs1 [famotidine]
